# Data as given in article PMC12280925, “Structure-based discovery of positive allosteric modulators of the A1 adenosine receptor” (Proceedings of the National Academy of Sciences of the …, 2025).
# Residue numbers refer to the chain shown, from its start.
# Key:
# [1] = target: T1, A1R (A1R-FlpInCHO cells) (Homo sapiens, UniProt P30542); assay: Inhibition of forskolin-stimulated cAMP accumulation: NECA potency ± compound and compound alone; format: cell-based
# T1 sequence (P30542 1-326): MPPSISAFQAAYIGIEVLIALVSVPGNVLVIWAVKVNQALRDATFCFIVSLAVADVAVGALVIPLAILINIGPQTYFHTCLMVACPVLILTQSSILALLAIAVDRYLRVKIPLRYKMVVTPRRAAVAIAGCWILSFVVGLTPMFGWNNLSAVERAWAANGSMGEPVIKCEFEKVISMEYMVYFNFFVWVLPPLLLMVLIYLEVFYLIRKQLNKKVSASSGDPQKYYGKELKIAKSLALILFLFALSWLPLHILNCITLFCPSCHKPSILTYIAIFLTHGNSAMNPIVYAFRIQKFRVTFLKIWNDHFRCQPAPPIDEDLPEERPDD
# Protocol: (§1) FlpInCHO cell lines and cortical neuron cells were seeded into transparent 96-well plates at 20,000 cells/well and incubated for 16 to 20 h in a humidified incubator at 37 °C in 5% CO2. […] Compounds were added at either a single concentration (10 or 30 μM) or a concentration range for full interaction studies (3 to 30 μM), and plates were incubated for 30 to 60 min at 37 °C in a humidified chamber. […] After 30 min incubation at 37 °C, the reaction was terminated by rapid removal of buffer and the addition of 50 μL/well cold ethanol. […] Agonist concentration–response curves were normalized to the response mediated by 3 µM forskolin […].
# Response=Basal+Emax-Basal×A/EC50+A,
# [2] = target: T2, A1R allosteric site (A1R-FlpINCHO cells, wild type) (Homo sapiens, UniProt P30542); assay: Whole-cell [3H]DPCPX interaction binding with NECA, allosteric ternary complex model
# T2 sequence (P30542 1-326): T1 sequence (P30542 1-326)
# Protocol: [^3H]DPCPX (8-cyclopentyl-1,3-dipropylxanthine, [dipropyl-2,3-^3H(N)]) whole-cell binding assays were performed on FlpINCHO cells stably expressing either WT (nontagged or 3xHA-tagged) or mutant 3xHA-A1R. Cells were seeded into a transparent 96-well plate at 40,000 cells/well in DMEM containing 10% FBS. Following 8 h incubation in a humidified environment at 37 °C in 5% CO2, cells were washed and maintained in serum-free DMEM for approximately 18 h at 37 °C in 5% CO2. […] Assays were terminated by washing twice with 100 μL/well cold phosphate-buffered saline, followed by the addition of 100 μL OptiPhase Supermix™ scintillation cocktail and bound radioactivity measured using a MicroBeta^2 ™ plate counter (PerkinElmer).
# Equilibrium binding interaction experiments were fitted to the following allosteric ternary complex model.[3] Y=BmaxA/A+KAKB/αAB+KB1+[I]/KI+[B]/KB+αII[B]/KIKB,
# A cooperativity factor α > 1 describes positive cooperativity; a value 0 < α < 1 describes negative cooperativity, and a value of α = 1 describes neutral cooperativity.
# [3] = parameters: method as in PMID 34497422; details: in vitro liver microsome assays; cited from earlier work
# [4] = target: T1, A1R (A1R-FlpInCHO cells); assay: NECA/allosteric ligand interaction in cAMP accumulation, operational model of allosterism; format: cell-based
# Protocol: as §1
# [5] E=EmτAAKB+αβ[B]+τB[B]KA^n/AKB+KAKB+[B]KA+α[A][B]^n+τAAKB+αβ[B]+τB[B]KA^n
# Orthosteric agonist and allosteric ligand affinity were constrained to values determined from radioligand binding.
# [5] = target: T3, A1R S246^6.47A mutant (Homo sapiens, UniProt P30542, S246A); parameters: method as in PMID 34497422; details: cited from earlier work
# T3 construct: expressed in transfected cells; host or cells: FlpInCHO cells, stably transfected
# T3 sequence (P30542 1-326 S246A): T1 sequence (P30542 1-326) with S246A
# [6] = parameters: method as in PMID 34497422; details: rat model; cited from earlier work
# [7] = target: T4, A1R G279^7.44A mutant (Homo sapiens, UniProt P30542, G279A); parameters: method as in PMID 34497422; details: cited from earlier work
# T4 construct: expressed in transfected cells; host or cells: FlpInCHO cells, stably transfected
# T4 sequence (P30542 1-326 G279A): T1 sequence (P30542 1-326) with G279A
smiles,measurement,setting,value
"Nc1scc(-c2cc(C(F)(F)F)cc(C(F)(F)F)c2)c1C(=O)c1ccc(Cl)cc1 [compound 1, reference compound]",inhibition of 3 μM forskolin-stimulated cAMP accumulation,"[1]; 30 μM compound in the absence of NECA, for NECA: maximal response",83%
same,functional response relative to NECA maximal response,"[1]; 30 μM, absence of NECA",approximately 80%
same,allosteric ligand affinity (pKB),"[2]; allosteric ternary complex model, n = 4",5.18 ± 0.21
same,binding cooperativity with NECA (logα),"[2]; allosteric ternary complex model, orthosteric agonist NECA",2.09 ± 0.22
same,positive cooperativity between PAM and NECA,"[2]; approximate, from logα",approximately 100 fold
same,Kd,"[2]; approximate, from pKB, read-out: affinity for the A1R allosteric site",~8 µM
same,metabolism in liver microsomes,[3],rapid metabolism
same,allosteric ligand efficacy (logτB),[4]; allosteric agonism in cAMP,0.56 ± 0.06
same,functional cooperativity with NECA (logαβ),[4]; cAMP,0.78 ± 0.15
same,effect of binding site mutation on affinity,[5],small (four- to seven-fold) but significant reduction
same,in vivo analgesic efficacy,[6],in vivo analgesic efficacy
same,effect of binding site mutation on affinity,[7],small (four- to seven-fold) but significant reduction
